Data as given in patent publication US12077537B2 (Gilead Sciences, Inc., priority 2020, dated 2024).

system: HIV-IIIb; assay: Antiviral assay in MT4 cells; assay type: cell-based; conditions: Human immunodeficiency virus 1, MT4, 120 h; MT-4 cells mixed with HIV-IIIb at m.o.i. 0.003; 5 days at 37° C.; CellTiter-Glo luminescence; 50% decrease in signal, a measure of HIV-1 replication
Method in brief: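 MT-4 cells were infected with HIV-IIIb at m.o.i. 0.003 for 1 hour, then added to 3-fold serially diluted compound (10 concentrations, quadruplicate) in medium with 10% FBS. After 5 days at 37° C, cell viability was read by CellTiter-Glo chemiluminescence.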

| EC50 | SMILES |
| --- | --- |
| 589 nM | NC(=O)c1cc(-c2cc3nc(O)oc3nc2[C@H](Cc2cc(F)cc(F)c2)NC(=O)Cn2nc(C(F)(F)F)c3c2C(F)(F)[C@@H]2C[C@H]32)ccc1F [Example 114, 5-(5-((S)-1-(2-((3bS,4aR)-5,5-difluoro-3-(trifluoromethyl)-3b,4,4a,5-tetrahydro-1H-cyclopropa[3,4]cyclopenta[1,2-c]pyrazol-1-yl)acetamido)-2-(3,5-difluorophenyl)ethyl)-2-hydroxyoxazolo[5,4-b]pyridin-6-yl)-2-fluorobenzamide] |
| 7 nM | Cn1nc(N)c2c(Cl)ccc(-c3cc4sc(NCC(C)(C)O)nc4nc3[C@H](Cc3cc(F)cc(F)c3)NC(=O)Cn3nc(C(F)(F)F)c4c3C(F)(F)[C@@H]3C[C@H]43)c21 [Example 115, N—((S)-1-(6-(3-amino-4-chloro-1-methyl-1H-indazol-7-yl)-2-((2-hydroxy-2-methylpropyl)amino)thiazolo[4,5-b]pyridin-5-yl)-2-(3,5-difluorophenyl)ethyl)-2-((3bS,4aR)-5,5-difluoro-3-(trifluoromethyl)-3b,4,4a,5-tetrahydro-1H-cyclopropa[3,4]cyclopenta[1,2-c]pyrazol-1-yl)acetamide] |
| 3.5 nM | Cn1nc(N)c2c(Cl)ccc(-c3cc4sc(NCC(C)(C)O)nc4nc3[C@H](Cc3cc(F)cc(F)c3)NC(=O)Cn3nc(C(F)F)c4c3C(F)(F)[C@@H]3C[C@H]43)c21 [Example 116, N—((S)-1-(6-(3-amino-4-chloro-1-methyl-1H-indazol-7-yl)-2-((2-hydroxy-2-methylpropyl)amino)thiazolo[4,5-b]pyridin-5-yl)-2-(3,5-difluorophenyl)ethyl)-2-((3bS,4aR)-3-(difluoromethyl)-5,5-difluoro-3b,4,4a,5-tetrahydro-1H-cyclopropa[3,4]cyclopenta[1,2-c]pyrazol-1-yl)acetamide] |
| 93.5 nM | NC(=O)c1cc(-c2nc3nc(C(Cc4cc(F)cc(F)c4)NC(=O)Cn4nc(C(F)(F)F)c5c4C(F)(F)[C@@H]4C[C@H]54)c(-c4ccc(F)c(C(N)=O)c4)cc3s2)ccc1F (stereo partly drawn) [Example 117, 5,5′-(5-(1-(2-((3bS,4aR)-5,5-difluoro-3-(trifluoromethyl)-3b,4,4a,5-tetrahydro-1H-cyclopropa[3,4]cyclopenta[1,2-c]pyrazol-1-yl)acetamido)-2-(3,5-difluorophenyl)ethyl)thiazolo[4,5-b]pyridine-2,6-diyl)bis(2-fluorobenzamide)] |
| 303 nM | NC(=O)c1cc(-c2cc3sc(-c4ccccc4)nc3nc2[C@H](Cc2cc(F)cc(F)c2)NC(=O)Cn2nc(C(F)(F)F)c3c2C(F)(F)[C@@H]2C[C@H]32)ccc1F [Example 118, 5-(5-((S)-1-(2-((3bS,4aR)-5,5-difluoro-3-(trifluoromethyl)-3b,4,4a,5-tetrahydro-1H-cyclopropa[3,4]cyclopenta[1,2-c]pyrazol-1-yl)acetamido)-2-(3,5-difluorophenyl)ethyl)-2-phenylthiazolo[4,5-b]pyridin-6-yl)-2-fluorobenzamide] |
| 72 nM | NC(=O)c1nc2nc(C(Cc3cc(F)cc(F)c3)NC(=O)Cn3nc(C(F)(F)F)c4c3C(F)(F)[C@@H]3C[C@H]43)c(-c3ccc(F)c(C(N)=O)c3)cc2s1 (stereo partly drawn) [Example 119, 6-(3-carbamoyl-4-fluorophenyl)-5-(1-(2-((3bS,4aR)-5,5-difluoro-3-(trifluoromethyl)-3b,4,4a,5-tetrahydro-TH-cyclopropa[3,4]cyclopenta[1,2-c]pyrazol-1-yl)acetamido)-2-(3,5-difluorophenyl)ethyl)thiazolo[4,5-b]pyridine-2-carboxamide] |
| 294 nM | Cc1c(-c2cc3[nH]c(-c4ccccc4)cc3nc2[C@H](Cc2cc(F)cc(F)c2)NC(=O)Cn2nc(C(F)(F)F)c3c2C(F)(F)[C@@H]2C[C@H]32)ccc2n[nH]c(=O)n12 [Example 120, 2-((3bS,4aR)-5,5-difluoro-3-(trifluoromethyl)-3b,4,4a,5-tetrahydro-1H-cyclopropa[3,4]cyclopenta[1,2-c]pyrazol-1-yl)-N—((S)-2-(3,5-difluorophenyl)-1-(6-(5-methyl-3-oxo-2,3-dihydro-[1,2,4]triazolo[4,3-a]pyridin-6-yl)-2-phenyl-1H-pyrrolo[3,2-b]pyridin-5-yl)ethyl)acetamide] |
| 79.6 nM | Cn1nc(NS(C)(=O)=O)c2cccc(-c3cc4[nH]c(-c5ccccc5)cc4nc3[C@H](Cc3cc(F)cc(F)c3)NC(=O)Cn3nc(C(F)(F)F)c4c3C(F)(F)[C@@H]3C[C@H]43)c21 [Example 121, 2-((3bS,4aR)-5,5-difluoro-3-(trifluoromethyl)-3b,4,4a,5-tetrahydro-1H-cyclopropa[3,4]cyclopenta[1,2-c]pyrazol-1-yl)-N—((S)-2-(3,5-difluorophenyl)-1-(6-(1-methyl-3-(methylsulfonamido)-1H-indazol-7-yl)-2-phenyl-1H-pyrrolo[3,2-b]pyridin-5-yl)ethyl)acetamide] |
| 12.3 nM | Cn1nc(NS(C)(=O)=O)c2cccc(-c3cc4[nH]c(-c5ccccc5)cc4nc3[C@H](Cc3cc(F)cc(F)c3)NC(=O)Cn3nc(C(F)F)c4c3C3CC3CC4)c21 (stereo partly drawn) [Example 122, 2-(3-(difluoromethyl)-5,5a,6,6a-tetrahydrocyclopropa[g]indazol-1(4H)-yl)-N—((S)-2-(3,5-difluorophenyl)-1-(6-(1-methyl-3-(methylsulfonamido)-1H-indazol-7-yl)-2-phenyl-1H-pyrrolo[3,2-b]pyridin-5-yl)ethyl)acetamide] |
| 8.6 nM | Cn1cc(-c2nc3nc(C(Cc4cc(F)cc(F)c4)NC(=O)Cn4nc(C(F)(F)F)c5c4C(F)(F)[C@@H]4C[C@H]54)c(-c4cccc5c(NS(C)(=O)=O)nn(C)c45)cc3s2)cn1 (stereo partly drawn) [Example 123, 2-((3bS,4aR)-5,5-difluoro-3-(trifluoromethyl)-3b,4,4a,5-tetrahydro-1H-cyclopropa[3,4]cyclopenta[1,2-c]pyrazol-1-yl)-N-(2-(3,5-difluorophenyl)-1-(2-(1-methyl-1H-pyrazol-4-yl)-6-(1-methyl-3-(methylsulfonamido)-1H-indazol-7-yl)thiazolo[4,5-b]pyridin-5-yl)ethyl)acetamide] |
| 13.6 nM | Cn1nc(NS(C)(=O)=O)c2cccc(-c3cc4sc(N5CCC(C)(O)CC5)nc4nc3C(Cc3cc(F)cc(F)c3)NC(=O)Cn3nc(C(F)(F)F)c4c3C(F)(F)[C@@H]3C[C@H]43)c21 (stereo partly drawn) [Example 124, 2-((3bS,4aR)-5,5-difluoro-3-(trifluoromethyl)-3b,4,4a,5-tetrahydro-1H-cyclopropa[3,4]cyclopenta[1,2-c]pyrazol-1-yl)-N-(2-(3,5-difluorophenyl)-1-(2-(4-hydroxy-4-methylpiperidin-1-yl)-6-(1-methyl-3-(methylsulfonamido)-1H-indazol-7-yl)thiazolo[4,5-b]pyridin-5-yl)ethyl)acetamide] |
| 17.4 nM | Cn1nc(NS(C)(=O)=O)c2cccc(-c3cc4sc(N5CCC(C)(O)C5)nc4nc3C(Cc3cc(F)cc(F)c3)NC(=O)Cn3nc(C(F)(F)F)c4c3C(F)(F)[C@@H]3C[C@H]43)c21 (stereo partly drawn) [Example 125, 2-((3bS,4aR)-5,5-difluoro-3-(trifluoromethyl)-3b,4,4a,5-tetrahydro-1H-cyclopropa[3,4]cyclopenta[1,2-c]pyrazol-1-yl)-N-(2-(3,5-difluorophenyl)-1-(2-(3-hydroxy-3-methylpyrrolidin-1-yl)-6-(1-methyl-3-(methylsulfonamido)-1H-indazol-7-yl)thiazolo[4,5-b]pyridin-5-yl)ethyl)acetamide] |
| 33.8 nM | Cn1nc(NS(C)(=O)=O)c2cccc(-c3cc4sc(N5CCC(C)(N)CC5)nc4nc3C(Cc3cc(F)cc(F)c3)NC(=O)Cn3nc(C(F)(F)F)c4c3C(F)(F)[C@@H]3C[C@H]43)c21 (stereo partly drawn) [Example 126, N-(1-(2-(4-amino-4-methylpiperidin-1-yl)-6-(1-methyl-3-(methylsulfonamido)-1H-indazol-7-yl)thiazolo[4,5-b]pyridin-5-yl)-2-(3,5-difluorophenyl)ethyl)-2-((3bS,4aR)-5,5-difluoro-3-(trifluoromethyl)-3b,4,4a,5-tetrahydro-TH-cyclopropa[3,4]cyclopenta[1,2-c]pyrazol-1-yl)acetamide] |
| 31.9 nM | Cn1nc(NS(C)(=O)=O)c2cccc(-c3cc4sc(N5CCC(C)(C(N)=O)CC5)nc4nc3C(Cc3cc(F)cc(F)c3)NC(=O)Cn3nc(C(F)(F)F)c4c3C(F)(F)[C@@H]3C[C@H]43)c21 (stereo partly drawn) [Example 127, 1-(5-(1-(2-((3bS,4aR)-5,5-difluoro-3-(trifluoromethyl)-3b,4,4a,5-tetrahydro-TH-cyclopropa[3,4]cyclopenta[1,2-c]pyrazol-1-yl)acetamido)-2-(3,5-difluorophenyl)ethyl)-6-(1-methyl-3-(methylsulfonamido)-1H-indazol-7-yl)thiazolo[4,5-b]pyridin-2-yl)-4-methylpiperidine-4-carboxamide] |
| 342 nM | Cn1nc(NS(C)(=O)=O)c2cccc(-c3cc4sc(NC5CNC(=O)C5)nc4nc3C(Cc3cc(F)cc(F)c3)NC(=O)Cn3nc(C(F)(F)F)c4c3C(F)(F)[C@@H]3C[C@H]43)c21 (stereo partly drawn) [Example 128, 2-((3bS,4aR)-5,5-difluoro-3-(trifluoromethyl)-3b,4,4a,5-tetrahydro-1H-cyclopropa[3,4]cyclopenta[1,2-c]pyrazol-1-yl)-N-(2-(3,5-difluorophenyl)-1-(6-(1-methyl-3-(methylsulfonamido)-1H-indazol-7-yl)-2-((5-oxopyrrolidin-3-yl)amino)thiazolo[4,5-b]pyridin-5-yl)ethyl)acetamide] |
